pIC50: −log10 of the molar value.
Key:
PAR2 [1] = molecular target: T1, PAR2 (Mus musculus, UniProt P55086); assay: Mechanical hypersensitivity / paw withdrawal response to PAR2 agonist 2AT injected into the hindpaw; type: in vivo; settings: mice
T1 construct: from tissue; host or cells: live mice, hindpaw
T1 sequence (P55086 26-399): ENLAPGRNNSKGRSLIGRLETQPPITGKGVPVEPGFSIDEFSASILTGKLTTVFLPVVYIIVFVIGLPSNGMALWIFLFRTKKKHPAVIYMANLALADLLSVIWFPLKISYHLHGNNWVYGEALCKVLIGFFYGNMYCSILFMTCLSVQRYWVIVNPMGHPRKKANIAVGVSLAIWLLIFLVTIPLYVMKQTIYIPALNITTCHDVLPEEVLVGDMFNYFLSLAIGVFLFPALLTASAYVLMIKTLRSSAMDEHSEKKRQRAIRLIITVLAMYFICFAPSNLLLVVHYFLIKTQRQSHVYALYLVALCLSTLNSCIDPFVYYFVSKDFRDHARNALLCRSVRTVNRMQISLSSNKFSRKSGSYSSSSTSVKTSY
Protocol: Experiments were conducted to test C781 in vivo in mice for its ability to block mechanical hypersensitivity (a pain measure) in response to a PAR2 agonist (2AT-LIGRL, also known as 2AT).
Animals were injected with 2at (black), 2at+C781(yellow), or C781 alone (green).
Animals were systemically treated with C781 or control and then local injected with 2at (black with control; yellow with C781) or with vehicle alone (green). […] This is important because previous PAR2 antagonists have not had systemic bioavailability and have only worked with very high doses via intravenous injection.

[2] = tested on: PAR2-dependent Ca^2+ signaling; assay: PAR2-dependent Ca2+ signaling; type: cell-based
Protocol: Addition of 1.75 μM of the potent PAR2 agonist 2at-LIGRL-NH2 (C134) induced Ca^2+ signaling in 50% of the cells within the experiment.

[3] = tested on: PAR2-dependent MAPK signaling; assay: PAR2-dependent MAPK signaling (MAPK phosphorylation); type: cell-based
PAR2 [4] = molecular target: T2, PAR2 (Homo sapiens, UniProt P55085); assay: Inhibition of PAR2 response induced by 2at-LIGRL-NH2 (FIG. 1); type: cell-based; settings: antagonist against agonist 2at-LIGR1-NH2
T2 sequence (P55085 26-397): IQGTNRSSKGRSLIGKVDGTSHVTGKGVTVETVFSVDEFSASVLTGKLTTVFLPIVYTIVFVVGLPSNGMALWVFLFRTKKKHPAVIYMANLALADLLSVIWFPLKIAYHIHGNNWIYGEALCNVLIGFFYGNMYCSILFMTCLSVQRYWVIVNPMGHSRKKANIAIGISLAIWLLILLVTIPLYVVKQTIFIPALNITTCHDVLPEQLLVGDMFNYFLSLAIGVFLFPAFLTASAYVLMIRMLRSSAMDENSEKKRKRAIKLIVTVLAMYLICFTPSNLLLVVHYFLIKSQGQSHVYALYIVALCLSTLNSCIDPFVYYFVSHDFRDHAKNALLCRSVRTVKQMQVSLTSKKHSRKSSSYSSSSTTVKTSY

PAR2 [5] = molecular target: T1, PAR2; assay: 2AT-evoked hyperalgesic priming in the hindpaw; type: in vivo; settings: given locally into the mouse hindpaw; FIG. 3

paw withdrawal response (pain) induced by agonist (PAR2 [1]; 2at injected into hindpaw, lower numbers indicative of pain) | concentration at which the 2at-LIGR1-NH2-induced PAR2 response was fully limited / compound was effective (PAR2 [4]) [nM] | effect on 2at-induced paw withdrawal response (pain) (PAR2 [1]; C781 given intraperitoneally 30 min prior to 2AT injection into the hindpaw, FIG. 4) | effect on paw withdrawal response of compound alone (PAR2 [1]; C781 injected locally with vehicle alone (no 2at), FIG. 2) | effect on 2at-induced paw withdrawal response (pain) (PAR2 [1]; C781 locally administered into hindpaw together with 2at, FIG. 2) | effect on paw withdrawal response after vehicle injection (PAR2 [1]; systemically administered C781, local vehicle alone, FIG. 4) | effect on 2AT-evoked hyperalgesic priming (PAR2 [5]) | pIC50 ([3]; response induced by 600 nM 2at-LIGRL-NH2 (100% response), 95% CI: 3.4 μM-21 μM, FIG. 5, read-out: IC50 for reduction of PAR2-dependent MAPK phosphorylation) | Compound | cells showing Ca2+ signaling ([2]; agonist at 1.75 μM, percent of the cells within the experiment) [%] | induction of MAPK phosphorylation ([3]; agonist at 600 nM, set as 100% response) | effect on PAR2-dependent Ca2+ signaling ([2]; administered with 1.75 μM 2at-LIGRL-NH2 (C134), FIG. 6)
induced a rapid withdrawal response | – | – | – | – | – | – | – | 2-aminothiazol-LIGRL-NH2 [2at-LIGRL-NH2, reference compound] | 50 | induced significant phosphorylation of MAPK | –
– | 100 to 300 | – | – | – | – | – | – | CC(C)CC(=O)N1C[C@H](NC(=O)c2csc(N)n2)C(=O)N2C1CN(CC1CCNCC1)C(=O)[C@@H]2CC(C)C (stereo partly drawn) [C732] | – | – | –
– | 30 to 300 | reduced the 2at response | had no effect | reduced the 2at response | had no effect on vehicle treatment | blocked 2AT-evoked hyperalgesic priming | 5.07 | CC(C)CC(=O)N[C@H]1CN(C(=O)c2ccco2)C2CN(CC3CCNCC3)C(=O)[C@H](CC(C)C)N2C1=O (stereo partly drawn) [C781] | – | – | no significant effect
